Experimental data as given in ChEMBL document CHEMBL3611999, “Bifunctional compounds targeting both D2 and non-α7 nACh receptors: design, synthesis and pharmacological characterization” (Eur J Med Chem, 2015).
Active and inactive are the calls of the source. No cut-off for these calls is given here.

How the values were obtained:
[1] = target: T1, Neuronal acetylcholine receptor; alpha4/beta2 (Homo sapiens, UniProt P17787+P43681); assay: Agonist activity at alpha4beta2 nAChR (unknown origin) expressed in HEK293 cells assessed as increase of ERK1/2 phosphorylation at 10 uM after 5 mins by Western blotting; assay type: cell-based
T1 sequence (P17787 whole entry): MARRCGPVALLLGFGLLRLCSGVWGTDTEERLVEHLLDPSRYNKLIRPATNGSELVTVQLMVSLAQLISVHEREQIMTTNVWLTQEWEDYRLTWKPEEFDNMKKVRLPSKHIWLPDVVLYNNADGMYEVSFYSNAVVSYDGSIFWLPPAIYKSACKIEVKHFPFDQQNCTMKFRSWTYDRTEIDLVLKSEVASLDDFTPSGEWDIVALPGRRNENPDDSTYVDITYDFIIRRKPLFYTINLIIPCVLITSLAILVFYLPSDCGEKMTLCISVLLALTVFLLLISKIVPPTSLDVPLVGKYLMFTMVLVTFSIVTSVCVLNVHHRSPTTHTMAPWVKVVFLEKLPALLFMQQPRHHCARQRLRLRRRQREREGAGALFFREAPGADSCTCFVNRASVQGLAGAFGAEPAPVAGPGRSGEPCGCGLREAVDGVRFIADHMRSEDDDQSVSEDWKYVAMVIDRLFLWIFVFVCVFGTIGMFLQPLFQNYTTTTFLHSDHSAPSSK
T1 sequence (P43681 whole entry): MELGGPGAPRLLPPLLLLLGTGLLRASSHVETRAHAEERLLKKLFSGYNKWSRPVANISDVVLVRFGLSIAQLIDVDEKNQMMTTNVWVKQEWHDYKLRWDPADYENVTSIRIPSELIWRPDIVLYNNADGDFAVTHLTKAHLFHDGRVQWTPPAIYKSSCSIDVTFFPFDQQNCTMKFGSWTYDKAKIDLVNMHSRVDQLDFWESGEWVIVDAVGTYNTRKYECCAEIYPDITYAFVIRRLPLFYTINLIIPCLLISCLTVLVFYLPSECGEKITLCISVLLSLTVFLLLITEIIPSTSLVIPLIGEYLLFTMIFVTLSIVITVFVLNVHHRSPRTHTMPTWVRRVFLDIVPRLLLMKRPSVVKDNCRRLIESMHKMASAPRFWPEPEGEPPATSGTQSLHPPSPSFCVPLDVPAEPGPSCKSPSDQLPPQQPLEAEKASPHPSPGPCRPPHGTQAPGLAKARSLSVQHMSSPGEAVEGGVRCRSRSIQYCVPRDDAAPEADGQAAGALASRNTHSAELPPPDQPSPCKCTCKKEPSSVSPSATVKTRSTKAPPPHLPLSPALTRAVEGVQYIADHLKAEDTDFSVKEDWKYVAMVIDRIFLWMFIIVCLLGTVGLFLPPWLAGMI

[2] = target: D(2) dopamine receptor (Homo sapiens) (UniProt P14416); assay: Partial agonist activity at dopamine D2 receptor (unknown origin) expressed in HEK293 cells assessed as reduction of quinpirole-induced ERK1/2 phosphorylation at 10 uM treated 30 mins before quinpirole addition by Western blotting; assay type: cell-based; set-up: scale not given: the % may be the effect or the level left
D(2) dopamine receptor (Homo sapiens), sequence (P14416 whole entry): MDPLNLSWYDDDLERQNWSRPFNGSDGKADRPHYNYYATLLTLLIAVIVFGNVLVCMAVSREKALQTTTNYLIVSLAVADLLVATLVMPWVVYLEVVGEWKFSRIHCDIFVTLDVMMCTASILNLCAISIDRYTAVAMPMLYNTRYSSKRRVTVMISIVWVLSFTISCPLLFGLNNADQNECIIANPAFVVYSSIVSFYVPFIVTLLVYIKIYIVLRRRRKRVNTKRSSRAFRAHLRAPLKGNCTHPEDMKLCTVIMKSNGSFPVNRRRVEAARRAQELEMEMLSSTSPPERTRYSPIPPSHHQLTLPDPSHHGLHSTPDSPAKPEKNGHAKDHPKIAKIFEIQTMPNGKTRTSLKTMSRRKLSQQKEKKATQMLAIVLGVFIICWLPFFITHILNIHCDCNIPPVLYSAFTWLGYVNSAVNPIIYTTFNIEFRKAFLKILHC

[3] = target: T1, Neuronal acetylcholine receptor; alpha4/beta2; assay: Antagonist activity at human alpha4beta2 nAChR expressed in HEK293 cells assessed as inhibition of acetylcholine-induced inward current at holding potential of -70 mV by patch clamp technique; assay type: cell-based
[4] = target: Mitogen-activated protein kinase; ERK1/ERK2 (Homo sapiens) (UniProt P27361+P28482); assay: Induction of ERK1/2 phosphorylation in human HEK293 cells at 10 uM after 5 mins by Western blotting; assay type: cell-based
Mitogen-activated protein kinase; ERK1/ERK2 (Homo sapiens), sequence (P27361 whole entry, looked up): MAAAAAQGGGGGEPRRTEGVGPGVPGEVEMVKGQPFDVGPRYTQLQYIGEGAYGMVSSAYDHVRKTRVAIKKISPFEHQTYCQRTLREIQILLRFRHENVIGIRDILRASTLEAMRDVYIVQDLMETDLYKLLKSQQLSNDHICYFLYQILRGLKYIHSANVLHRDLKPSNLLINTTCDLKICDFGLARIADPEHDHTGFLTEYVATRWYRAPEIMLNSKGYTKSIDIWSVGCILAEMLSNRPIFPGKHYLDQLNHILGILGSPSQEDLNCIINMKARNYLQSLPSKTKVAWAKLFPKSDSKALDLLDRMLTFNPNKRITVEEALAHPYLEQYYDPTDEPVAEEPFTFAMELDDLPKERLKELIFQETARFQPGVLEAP
Mitogen-activated protein kinase; ERK1/ERK2 (Homo sapiens), sequence (P28482 whole entry, looked up): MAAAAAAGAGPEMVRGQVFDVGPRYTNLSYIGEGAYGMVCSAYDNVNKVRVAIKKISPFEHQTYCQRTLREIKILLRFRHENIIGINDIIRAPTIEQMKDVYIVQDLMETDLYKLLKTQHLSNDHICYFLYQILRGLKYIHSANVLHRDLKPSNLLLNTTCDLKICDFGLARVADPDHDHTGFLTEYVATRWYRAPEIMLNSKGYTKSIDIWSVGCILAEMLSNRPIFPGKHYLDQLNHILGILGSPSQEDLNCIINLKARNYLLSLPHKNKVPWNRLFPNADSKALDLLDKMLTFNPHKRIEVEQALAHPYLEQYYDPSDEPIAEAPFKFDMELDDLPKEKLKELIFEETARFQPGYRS

[5] = target: T1, Neuronal acetylcholine receptor; alpha4/beta2; assay: Partial agonist activity at human alpha4beta2 nAChR expressed in HEK293 cells assessed as inward current at holding potential of -70 mV by patch clamp technique relative to acetylcholine; assay type: cell-based; set-up: concentration or dose not given beside the values
[6] = Antagonist activity at nAChR in Sprague-Dawley rat striatal slices assessed as inhibition of nicotine-induced [3H]-dopamine release; details: Sprangue-Dawley
[7] = target: Neuronal acetylcholine receptor subunit alpha-7 (Rattus norvegicus, UniProt Q05941); assay: Displacement of [125I]alpha-bungarotoxin from alpha7 nAChR in Sprague-Dawley rat hippocampus membrane homogenates by gamma counting; set-up: species or system Sprangue-Dawley
Neuronal acetylcholine receptor subunit alpha-7, sequence (Q05941 whole entry): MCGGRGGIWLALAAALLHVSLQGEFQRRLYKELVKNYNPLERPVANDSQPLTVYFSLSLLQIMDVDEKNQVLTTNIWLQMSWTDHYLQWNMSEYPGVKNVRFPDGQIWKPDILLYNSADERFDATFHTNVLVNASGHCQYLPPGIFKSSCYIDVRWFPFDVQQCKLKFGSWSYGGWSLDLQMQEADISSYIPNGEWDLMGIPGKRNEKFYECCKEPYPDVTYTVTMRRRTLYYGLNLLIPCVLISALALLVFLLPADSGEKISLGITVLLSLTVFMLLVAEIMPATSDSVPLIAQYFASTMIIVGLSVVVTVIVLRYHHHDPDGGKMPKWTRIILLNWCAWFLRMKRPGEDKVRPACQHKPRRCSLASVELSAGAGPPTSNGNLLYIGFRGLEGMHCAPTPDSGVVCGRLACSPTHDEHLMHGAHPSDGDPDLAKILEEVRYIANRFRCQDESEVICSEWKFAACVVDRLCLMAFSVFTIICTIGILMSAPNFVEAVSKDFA

[8] = organism: Rattus norvegicus; assay: Agonist activity at nAChR in Sprague-Dawley rat striatal slices assessed as induction of [3H]-dopamine release; details: Sprangue-Dawley
[9] = target: T1, Neuronal acetylcholine receptor; alpha4/beta2; assay: Antagonist activity at alpha4beta2 nAChR (unknown origin) expressed in HEK293 cells assessed as reduction of nicotine-induced ERK1/2 phosphorylation at 10 uM treated 30 mins before nicotine addition by Western blotting; assay type: cell-based
[10] = target: D(3) dopamine receptor (Homo sapiens, UniProt P35462); assay: Displacement of [3H]raclopride from dopamine D3 receptor (unknown origin) expressed in HEK293 cells after 30 mins; assay type: cell-based
D(3) dopamine receptor, sequence (P35462 whole entry): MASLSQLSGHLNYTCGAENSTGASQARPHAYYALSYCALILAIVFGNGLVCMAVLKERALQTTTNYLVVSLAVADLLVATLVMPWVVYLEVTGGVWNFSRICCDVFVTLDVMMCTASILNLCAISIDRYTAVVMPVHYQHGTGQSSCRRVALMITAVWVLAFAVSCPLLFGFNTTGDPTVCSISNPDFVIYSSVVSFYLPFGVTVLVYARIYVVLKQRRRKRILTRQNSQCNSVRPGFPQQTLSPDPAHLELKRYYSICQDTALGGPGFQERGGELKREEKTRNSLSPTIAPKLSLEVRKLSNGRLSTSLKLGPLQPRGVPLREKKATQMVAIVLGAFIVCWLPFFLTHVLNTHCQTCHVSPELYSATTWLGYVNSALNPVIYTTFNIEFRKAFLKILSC

[11] = target: Neuronal acetylcholine receptor; alpha4/beta2 (Rattus norvegicus, UniProt P09483+P12390); assay: Displacement of [3H]epibatidine from immunoimmobilized alpha4beta2 nAChR in Sprague-Dawley rat striatal membranes by liquid scintillation counting; set-up: species or system Sprangue-Dawley, Striatum, Membrane
Neuronal acetylcholine receptor; alpha4/beta2 (Rattus norvegicus, UniProt P09483+P12390), sequence (P09483 whole entry): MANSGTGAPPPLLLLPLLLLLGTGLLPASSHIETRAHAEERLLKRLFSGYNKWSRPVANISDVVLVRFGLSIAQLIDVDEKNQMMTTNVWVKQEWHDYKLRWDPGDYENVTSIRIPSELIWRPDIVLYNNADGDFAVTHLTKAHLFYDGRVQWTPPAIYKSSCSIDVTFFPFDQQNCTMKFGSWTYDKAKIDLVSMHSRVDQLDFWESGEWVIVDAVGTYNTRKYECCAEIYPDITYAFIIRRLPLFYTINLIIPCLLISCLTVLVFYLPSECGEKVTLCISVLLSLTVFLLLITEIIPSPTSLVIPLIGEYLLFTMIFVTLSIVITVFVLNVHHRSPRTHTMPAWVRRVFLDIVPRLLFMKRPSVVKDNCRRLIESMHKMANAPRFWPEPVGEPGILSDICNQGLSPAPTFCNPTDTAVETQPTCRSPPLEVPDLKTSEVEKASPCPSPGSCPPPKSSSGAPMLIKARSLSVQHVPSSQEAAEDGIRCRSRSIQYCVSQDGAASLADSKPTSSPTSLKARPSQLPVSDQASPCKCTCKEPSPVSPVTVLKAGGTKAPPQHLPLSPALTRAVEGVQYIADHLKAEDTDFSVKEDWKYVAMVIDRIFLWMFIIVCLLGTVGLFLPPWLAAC
Neuronal acetylcholine receptor; alpha4/beta2 (Rattus norvegicus, UniProt P09483+P12390), sequence (P12390 whole entry): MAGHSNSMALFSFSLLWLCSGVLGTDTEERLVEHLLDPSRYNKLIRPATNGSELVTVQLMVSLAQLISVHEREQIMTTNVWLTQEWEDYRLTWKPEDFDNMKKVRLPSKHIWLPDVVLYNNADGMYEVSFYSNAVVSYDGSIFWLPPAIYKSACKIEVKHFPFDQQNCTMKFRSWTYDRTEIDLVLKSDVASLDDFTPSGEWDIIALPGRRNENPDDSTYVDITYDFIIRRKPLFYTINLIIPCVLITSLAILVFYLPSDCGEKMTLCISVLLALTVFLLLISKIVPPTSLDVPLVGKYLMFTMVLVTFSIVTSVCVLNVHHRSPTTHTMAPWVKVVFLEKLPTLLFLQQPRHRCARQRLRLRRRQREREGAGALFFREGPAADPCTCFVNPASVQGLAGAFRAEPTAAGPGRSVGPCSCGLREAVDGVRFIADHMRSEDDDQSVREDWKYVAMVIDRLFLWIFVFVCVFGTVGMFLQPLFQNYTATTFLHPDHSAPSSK

[12] = target: D(2) dopamine receptor (Rattus norvegicus, UniProt P61169); assay: Displacement of [3H]raclopride from dopamine D2 receptor in Sprague-Dawley rat striatal membranes after 30 mins; set-up: species or system Sprangue-Dawley, Striatum, Membrane
D(2) dopamine receptor, sequence (P61169 whole entry): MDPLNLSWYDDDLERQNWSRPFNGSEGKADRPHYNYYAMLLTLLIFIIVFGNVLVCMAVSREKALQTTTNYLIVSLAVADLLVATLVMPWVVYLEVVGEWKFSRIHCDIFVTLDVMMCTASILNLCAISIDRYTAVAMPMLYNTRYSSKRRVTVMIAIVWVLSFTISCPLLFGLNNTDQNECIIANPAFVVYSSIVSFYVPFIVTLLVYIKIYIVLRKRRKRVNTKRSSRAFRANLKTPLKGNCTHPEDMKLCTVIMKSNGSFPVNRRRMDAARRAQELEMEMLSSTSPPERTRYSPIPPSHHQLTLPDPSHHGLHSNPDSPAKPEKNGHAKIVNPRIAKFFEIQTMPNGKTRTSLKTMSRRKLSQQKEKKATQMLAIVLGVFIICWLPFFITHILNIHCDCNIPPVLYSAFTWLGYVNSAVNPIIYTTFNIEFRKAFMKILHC

[13] = target: T1, Neuronal acetylcholine receptor; alpha4/beta2; assay: Binding affinity to alpha4beta2 nAChR (unknown origin); assay type: protein-complex assay
[14] = organism: Rattus norvegicus; assay: Agonist activity at nAChR in Sprague-Dawley rat striatal slices assessed as induction of [3H]-dopamine release at 25 uM; details: Sprangue-Dawley
[15] = organism: Rattus norvegicus; assay: Antagonist activity at nAChR in Sprague-Dawley rat striatal slices assessed as inhibition of nicotine-induced [3H]-dopamine release at 10 uM; details: Sprangue-Dawley
[16] = target: Neuronal acetylcholine receptor subunit alpha-6/beta-3 (Rattus norvegicus) (UniProt P12391+P43143); assay: Ratio of NHNB Ki to compound Ki for immunoimmobilized alpha6beta2 nAChR in Sprague-Dawley rat striatal membranes; details: Sprangue-Dawley
[17] = target: Neuronal acetylcholine receptor; alpha4/beta2 (Rattus norvegicus) (UniProt P09483+P12390); assay: Ratio of NHNB Ki to compound Ki for immunoimmobilized alpha4beta2 nAChR in Sprague-Dawley rat striatal membranes; details: Sprangue-Dawley
[18] = organism: Rattus norvegicus; assay: Agonist activity at nAChR in Sprague-Dawley rat striatal slices assessed as induction of [3H]-dopamine release at 10 uM; details: Sprangue-Dawley
[19] = organism: Rattus norvegicus; assay: Antagonist activity at nAChR in Sprague-Dawley rat striatal slices assessed as inhibition of nicotine-induced [3H]-dopamine release at 5 uM; details: Sprangue-Dawley

SMILES: CN1CCC[C@H]1c1cccnc1
- Activity [1]: Active

SMILES: CN1CCC[C@H]1c1ccc[n+](CCCCCCNCC2CCc3ccc(O)cc3O2)c1 (mixture of isomers)
- Activity [2]: 40%
- IC50 [3]: 800 nM
- Activity [4]: inactive
- Activity [5]: 15%
- IC50 [6]: 6900 nM
- Ki [7]: 13000 nM
- Activity [8]: inactive
- inhibition [9]: 65%
- Ki [10]: 15.7 nM
- Ki [11]: 109 nM
- Ki [12]: 97 nM
- Activity [1]: inactive

SMILES: CCCCC[n+]1cccc([C@@H]2CCCN2C)c1
- IC50 [3]: 90 nM
- Activity [5]: 27%
- IC50 [6]: 15300 nM
- Ki [7]: > 100000 nM
- Ki [11]: 3940 nM

SMILES: CCCCCCCCCCCC[n+]1cccc([C@@H]2CCCN2C)c1
- Ki [13]: 0.14 nM
- Activity [5]: 9%
- IC50 [6]: 500 nM
- Ki [7]: 83000 nM
- Activity [14]: Active
- Ki [11]: 1410 nM

SMILES: CCCCCCCCCC[n+]1cccc([C@@H]2CCCN2C)c1
- IC50 [3]: 200 nM
- Ki [13]: 0.09 nM
- inhibition [15]: inactive
- Activity [5]: 1.3%
- Ki [7]: 84000 nM
- Activity [8]: Active
- Ki [11]: 8690 nM

SMILES: CN1CCC[C@H]1c1ccc[n+](CCCCCCCCCCNCC2CCc3ccc(O)cc3O2)c1 (mixture of isomers)
- IC50 [3]: 100 nM
- Activity [4]: inactive
- Ratio Ki [16]: 30
- Activity [5]: 4%
- IC50 [6]: 10400 nM
- Ki [7]: 43000 nM
- inhibition [9]: 57%
- Ki [10]: 3.3 nM
- Ki [11]: 1060 nM
- Ki [12]: 14 nM
- Ratio Ki [17]: 43
- Activity [1]: inactive

SMILES: CNC1(C)C2CCC(C2)C1(C)C (stereo not given) [MECAMYLAMINE]
- IC50 [6]: 300 nM

SMILES: CN1CCC[C@H]1c1ccc[n+](CCCCCNCC2CCc3ccc(O)cc3O2)c1 (mixture of isomers)
- IC50 [3]: 200 nM
- Activity [4]: inactive
- Ratio Ki [16]: 30
- Activity [5]: 13%
- IC50 [6]: 2300 nM
- Ki [7]: 11000 nM
- Activity [8]: inactive
- inhibition [9]: 55%
- Ki [10]: 43 nM
- Ki [11]: 2270 nM
- Ki [12]: 120 nM
- Ratio Ki [17]: 43
- Activity [1]: inactive

SMILES: CN1CCC[C@H]1c1ccc[n+](CCCCCCCCCCCCNCC2CCc3ccc(O)cc3O2)c1 (mixture of isomers)
- Activity [18]: Active
- inhibition [19]: 10%
- Activity [4]: inactive
- Ratio Ki [16]: 30
- Activity [5]: 8.3%
- Ki [7]: 65000 nM
- inhibition [9]: 57%
- Ki [10]: 9.9 nM
- Ki [11]: 2750 nM
- Ki [12]: 20 nM
- Ratio Ki [17]: 43
- Activity [1]: inactive

SMILES: CCCNCC1CCc2ccc(O)cc2O1 (stereo not given)
- Ki [7]: > 100000 nM
- Ki [11]: > 100000 nM

SMILES: CCCCCCNCC1CCc2ccc(O)cc2O1 (stereo not given)
- Ki [7]: > 100000 nM
- Ki [11]: > 100000 nM

SMILES: CCCCCC[n+]1cccc([C@@H]2CCCN2C)c1
- IC50 [3]: 300 nM
- Activity [5]: 18%
- IC50 [6]: 8900 nM
- Ki [7]: > 100000 nM
- Activity [8]: inactive
- Ki [11]: 4710 nM

SMILES: CO[C@H]1CC=C2CCN3CCC4=C(CC(=O)OC4)[C@]23C1
- IC50 [6]: 2200 nM
